Tests used:
Type in all cases: cell-based, Pseudomonas aeruginosa
[1] = tested on: las quorum sensing system (lasB-gfp(ASV) expression); experiment: AHL and furanone bioassay, PlasB-gfp(ASV) Plac-lasR reporter in planktonic PAO-JP2
Description: AHL and furanone bioassay. Strains were grown exponentially in LB or ABt medium supplemented with 0.5% glucose at 30° C., shading at 250 rpm. At an optical density of approximately 0.8. the cultures were diluted and split into subcultures in glass culture flasks. AHLs and furanone 56 were added to appropriate concentrations and the cultures were further incubated at 30° C. under vigorous shaking. Culture samples were retrieved at various time intervals and green fluorescence was measured with a fluorometer (model RF-1501, Shimadzu, Tokyo, Japan) set at an excitation wavelength of 475 nm and emission wavelength of 515 nm. Relative fluorescence was calculated as green fluorescence normalized to 1 ml culture divided by the optical density (OD600 nm.
Initially, the lasB-gfp(ASV) translational fusion (OdDHL sensor) was thoroughly characterized with respect to its sensitivity and specificity. A culture of E. coli hosting the pMHLAS monitor plasmid was diluted and spilt into several subcultures which were then supplemented with AHLs at concentrations ranging from 0 to 1000 nM. […] When the pMHLAS based reporter system was hosted by PAO-JP2. the OdDHL concentration required for half-maximal activation of the lasB-gfp(ASV) fusion was 8 nM (data not shown). In single copy on the chromosome of PAO-JP2, the OdDHL concentration on required for half-maximal activation of lasB expression was approximately 250 nM (FIG. 2b). Green fluorescent cells were visible by epifluorescence microscopy at a minimal OdDHL concentration of 50 nM (FIG. 2c).
Noteworthy, the inhibitory effect of furanone 56 was relieved at increased concentrations of OdDHL.

[2] = tested on: P. aeruginosa protein synthesis; experiment: Constitutive Gfp-expression (pMH306) in PAO1, protein synthesis control; details: PAO1 with pMH306, furanone 0 to 10 μ/ml; data not shown
Description: To determine if the furanone compound worked specifically on the las quorum sensor and not indirectly by disruption of primary metabolic functions, we followed growth as optical density of P. aeruginosa PAO1 in the presence of furanone 56. […] Further, we tested whether the furanone affected P. aeruginosa protein synthesis. The wild type P. aeruginosa PAO1 strain containing the consitutive Gfp-expression vector pMH306 was grown in the presence of furanone 56 at concentrations from 0 to 10 μ/ml. Gfp-expression (fluorescence/OD600 nm) was throughout the growth cycle unaffected by the presence of furanone compound (data not shown).

chitinase = experiment: Virulence factor production: chitinase activity of PAO-JP2 supernatant; details: PAO-JP2, 70 nm OdDHL plus 3 μg/ml and 5 μg/ml furanone 56
Description: The chitinase activity assay was performed as described by the assay manufacturer (Loewe Biochemica, Sauerlach, Germany). Supernatant (560 μl) of cultures prepared as described for the elastase assay was mixed with carboxymethyl-chitin-remazol brilliant violet (200 μl) and sodium phosphate buffer (40 μl, 1 M, pH 7.5). The reaction mixture was incubated for 18 h at 40° C. in a waterbath. The reaction was stopped by addition of HCl (200 μl, 2 N) and kept for 15 min on ice. After centrifugation (10 min at 15000 rpm), the absorbance (OD550 nm) of the supernatant was measured. The relative chitinase activity was calculated as OD550 nm/OD600 nm normalized to 1 ml supernatant.

[3] = tested on: P. aeruginosa PAO1 biofilm; experiment: Wild type P. aeruginosa PAO1 flowcell biofilm, lasB-gfp(ASV) reporter and Rfp tag, long term
Description: P. aeruginosa biofilms. Biofilms were grown at 30° C. in three-dimensional flow cells (Christensen et al., 1999) with individual channel dimensions of 0.3×4×40 mm supplied With ABt minimal medium supplemented with 2% LB. The flow system was assembled and prepared as described by Christensen et al. (1999). The substratum consisted of a microscope glass coverslip (Knittel 24×50 mm st1, Knittel Glaser, Braunschweig, Germany). Cultures for inoculation of the flow channels were prepared in the following way: P. aeruginosa strains were streaked on LB plates with the appropriate antibiotics and incubated for 24 h at 37° C. From each plate a single colony was used for inoculation of 10 ml ABt with 10% LB. The cultures were grown at, 30° C. for 18 h before they were diluted to an OD600 nm of 0.1 in sterile 0.9% NaCl and used for inoculation of the flow channels. Medium flow was kept at a constant rate of 3 mL/h, equivalent to a mean flow velocity of 0.7 mm/s, using a Watson-Marlow 205S peristaltic pump (Watson-Marlow, Falmouth, England). Biofilms were grown for 24 hours before being shifted to media containing AHL and furanone.
Scanning confocal laser microscopy (SCLM). Microscopic inspection and image acquisition were performed an a scanning confocal laser microscope (model TCS4D, Leica Lasertechnik GmbH, Heldelberg, Germany) equipped with a 63×/1.32-0.6 oil objective. The microscope was equipped with a motorized and programmable xy-stage, which was used for monitoring single colonies during the biofilm experiments. At the beginning of each online experiment, the microscope was programmed to track single randomly selected microcolonies; the sensitivity of photo multipliers and the laser intensity were adjusted and thereafter kept constant through out the duration of the experiments. Image scanning was carried out using the 488 nm and 568 nm lines of an Ar/Kr laser for detection of Gfp and Rfp, respectively. Visualization of captured images was performed using the IMARIS software package (Bitplane AG, Zúrich, Switzerland) running on a Silicon Graphics Indigo 2 workstation (Silicon Graphics, Mountain View, Calif. USA).
Furanone 66 represses lasB-expression in wild type P. aeruginosa biofilms. Wild type P. aeruginosa (PAO1) carrying a chromosomally integrated lasB-gfp(ASV) reporter system was grown in flowcells similar to the PAO-JP2-based reporter strain. We focused on studying the effect of furanone 56 in loan term biofilm experiments. In favor of this approach is the observation by Davies et al. (1998) that quorum sensing is involved in maturation of P. aeruginosa biofilms (up to 2 weeks old). In order to support such longterm cultivation, the biofilm medium was modified to contain 0.3 mM glucose instead of 2% LB as a carbon source. In addition, the recently available Red Fluorescent Protein (Rfp) derived from the indopacific sea anemone Discosome was employed to provide a red fluorescent tag on the biofilm bacteria. A mini-Tn5 transposon with the dsred gene under control of the strong constitutive lac promoter was inserted into the chromosome of PAO1 containing the lasB reporter system.
The dual-labeled PAO1 strain was inoculated A grown in flowcells in the absence and presence of 5 μg/ml furanone 56. The flowcells were inspected daily for ten days and scanning confocal photomicrographs were captured (FIG. 6 & 7). For clarity, the green and red fluorescent signals from the same area of the biofilm are shown separately. Because the cells constitutively express Rfp, the red color correlates with cell mass, whereas the green fluorescence indicates active transcription of the lasB-gfp(ASV) reporter gene in response to on-going bacterial communication.

O=C1C=C/C(=C/Br)O1 [furanone 56]
effect on lasB-gfp(ASV) expression ([1]; 1.25 μ/ml (7.1 μM) furanone, range of OdDHL concentrations): inhibited lasB-gfp(ASV) expression at a wide range of OdDHL concentrations
complete inhibition of lasB-gfp(ASV) expression ([1]; any of the tested concentrations): complete inhibition was not attained at any of the tested concentrations
Gfp-expression (fluorescence/OD600 nm) throughout the growth cycle [2]: unaffected
chitinase activity (chitinase): close to the uninduced level
reporter system in biofilms ([3]; 5 μg/ml furanone 56): partially shut down
complete inhibition of the lasB-gfp(ASV) reporter in all biofilm bacteria ([3]; concentrations with no effect on growth (<10 μg/ml)): not achievable
bacterial signaling (green fluorescence) ([3]; day 1, 5 μg/ml furanone 56): greatly reduced
early biofilm formation ([3]; day 1, 5 μg/ml furanone 56): not or only slightly affected
green fluorescence of biofilm cells ([3]; day 7, 5 μg/ml furanone 56): far less green fluorescence
average biofilm thickness ([3]; day 7, 5 μg/ml furanone 56 (untreated 61±6 μm)): 23±4 μm
biofilm maturation ([3]; wild type biofilm grown in the presence of furanone): failed to mature

From patent publication US20040147595A1, “Biofilm degrading or sloughing compositions and methods” (priority 2001, published 2004)
